{"source": "patent US7572770B2", "about": "“Use of an interleukin 1 receptor antagonist and/or pyrrolidinedithiocarbamate for the treatment or prophylaxis of type 2 diabetes” (University of Zurich, priority 2002, dated 2009)", "key": {"[1]": {"tested_on": "diabetes-prone Psammomys obesus", "assay": "Diabetes-prone Psammomys obesus on high-energy diet treated with phlorizin", "assay_type": "in vivo", "text": "Animals. Psammomys obesus of both sexes (age 2.0-3.5 months) from the diabetes-prone and diabetes-resistant lines of the Hebrew University colonies were obtained from Harlan (Jerusalem, Israel). After weaning, diabetes-prone Psammomys obesus were maintained on a low-energy diet containing 2.38 kcal/g (Koffolk, Petach Tikva, Israel) until the start of the experiments, whereas diabetes-resistant Psammomys obesus were maintained on a […] (Weizmann Institute, Rehovot, Israel) to identify animals that develop diabetes and exclude them from the study (˜30-40% of the animals in the diabetes-resistant colony). All non-fasted animals with random blood glucose concentrations <7.8 mmol/l (Glucometer Elite, Bayer Diagnostics, Elkart, Ind.) were considered nondiabetic. Diabetes-prone Psammomys obesus switched to a high-energy diet, received an injection of 0.4 g/kg phlorizin (Sigma) or solvent (40% propylene glycol) every 12 h and were killed after 8 days. Psammomys obesus were anesthetized with ketamine (Ketalar, Park-Davis, Gwent, U.K.) and exsanguinated by cardiac puncture. The pancreas was rapidly removed, and immersion-fixed in 10% phosphate-buffered formalin. The animal studies were approved by the Institutional Animal Care and Use Committee of the Hebrew University and the Hadassah Medical Organization.\nDetection of IL-1β expressing β-cells. Pancreases from routine necropsies and pancreases from Psammomys obesus were immersion-fixed in formalin, followed by paraffin embedding. Sections were deparaffinized and rehydrated, and endogenous peroxidase blocked by submersion in 0.3% H2O2 for 15 min. Sections were then incubated in methanol for 4 min. After washing with PBS, cultured islets and isolated β-cells were fixed in 4% paraformaldehyde (30 min, room temperature) followed by permeabilisation with 0.5% triton X-100 (4 min, room temperature). Both tissue sections and cultured cells were double-labeled for IL-1β and insulin by 1 h exposure to 10% bovine serum albumin, followed by incubation (1 h, 37° C.) with mouse anti-IL-1β antibody (1:30 dilution, R&D Systems Inc.). Detection was performed using donkey anti-mouse Cy3 conjugated antibody (1:100 dilution, Jackson). Subsequently, specimens were incubated for 30 min at 37° C. with guinea pig anti-insulin antibody diluted 1:50 (Dako, Carpinteria, Calif.), followed by a 30 min incubation with a 1:20 dilution of fluorescein-conjugated rabbit anti-guinea pig antibody (Dako). For positive control of IL-1β staining, human mononuclear cells were isolated as described previously (37) and exposed for 2 h, 37° C. to 1 μg/ml lipopolysaccharide (Difco, Detroit, Ind.). […]"}, "human islets": {"tested_on": "human islets", "assay": "Insulin release and content of human islets", "assay_type": "cell-based", "conditions": "33.3 mM glucose or IL-1β, 4 days", "description": "(§1) Islet isolation and culture. Islets were isolated from pancreases of eleven organ donors at the Department of Surgery, University of Geneva Medical Center, as described (32-34). The islet purity was >95%, as judged by dithizone staining (if this degree of purity was not primarily achieved by routine isolation, islets were handpicked). […] For long-term in vitro studies, the islets were cultured on extracellular matrix-coated plates derived from bovine corneal endothelial cells (Novamed Ltd., Jerusalem, Israel), allowing the cells to attach to the dishes and spread, preserving their functional integrity (7;35). Islets were cultured in CMRL 1066 medium containing 100 U/ml penicillin, 100 μg/ml streptomycin and 10% fetal calf serum (Gibco, Gaithersburg, Md.), hereinafter referred to as culture medium. Two days after plating, when most islets were attached and began to flatten, the medium was changed to culture medium containing 5.5, 11.1 or 33.3 mM glucose. In some experiments, islets were additionally cultured with 2 ng/ml recombinant human IL-1β, 1000 U/ml recombinant human IFNγ (ReproTech EC Ltd, London, UK), 500 ng/ml IL-1β receptor antagonist (IL-1Ra) (R&D Systems Inc., Minneapolis, Minn.), 1 ng/ml membrane bound Fas-ligand (FasL) (36) (upstate biotechnology, Lake Placid, N.Y.) or with 100 μM pyrrolidinedithiocarbamate (PDTC; Sigma; 2 h per 2 d of culture).\nInsulin release and content. To determine acute insulin release in response to glucose stimulation, islets were washed in RPMI 1640 medium with 10% FCS and containing 3.3 mM glucose and pre-incubated for 1 h in the same medium. The medium was then discarded and replaced with fresh medium containing 3.3 mM glucose for 1 h for basal secretion, followed by an additional 1 h incubation in medium containing 16.7 mM glucose. Incubates were collected and frozen for insulin assays. […] Insulin was determined by a human insulin RIA kit (CIS bio international, Gif-Sur-Yvette, France)."}, "type II IL-1R": {"target": "T1, type II IL-1R (Homo sapiens, UniProt P27930)", "T1 sequence (P27930 14-398)": "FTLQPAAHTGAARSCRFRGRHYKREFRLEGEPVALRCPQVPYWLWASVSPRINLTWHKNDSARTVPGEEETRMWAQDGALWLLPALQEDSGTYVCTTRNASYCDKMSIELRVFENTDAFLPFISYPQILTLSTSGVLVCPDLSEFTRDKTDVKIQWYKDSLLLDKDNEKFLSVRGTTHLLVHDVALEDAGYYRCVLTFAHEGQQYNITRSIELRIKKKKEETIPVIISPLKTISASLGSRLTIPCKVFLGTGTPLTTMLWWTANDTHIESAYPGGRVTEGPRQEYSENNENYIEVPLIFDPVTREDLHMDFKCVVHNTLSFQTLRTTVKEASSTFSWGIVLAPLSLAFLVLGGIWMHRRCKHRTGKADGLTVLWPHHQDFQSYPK", "conditions": "read-out: Kd, binding to type II IL-1R; cited from earlier work"}, "iNOS": {"tested_on": "iNOS", "assay": "iNOS expression in human islets", "assay_type": "cell-based", "conditions": "33 mM glucose or IL-1β alone, 44 hours", "description": "Western blot analysis. Islets were cultured in a culture medium in non-adherent plastic dishes. One day after isolation, the medium was changed and groups of 200 islets were incubated for 44 hours in culture medium containing 5.5 or 33.3 mM glucose without or with 2 ng/ml IL-1β or 500 ng/ml IL-1Ra. At the end of the incubations, islets were washed in PBS, suspended in 50 μl sample buffer containing 125 mM Tris-HCl, pH 6.8, 4% SDS, 10% glycerol, 0.3% bromphenol blue, 1.8% β-mercaptoethanol and boiled for 5 min. Equivalent amounts of each treatment group were run on 15% SDS polyacrylamide gels. […] Intensity of bands was analyzed using Multianalyst™ (Bio Rad, Laboratories inc., Hercules, Calif.).\nRNA extraction, RT-PCR and sequencing of RT-PCR product. […] The conditions of the PCR amplification for IL-1β and Fas were: denaturation 30 seconds at 94° C., annealing 30 seconds at 60° C. and elongation 30 seconds at 72° C., followed for real time PCR by quantification 5 seconds at 80° C., 45 cycles. […] For quantitative analysis, we used the Light Cycler quantitative PCR system (Roche, Basel, Switzerland) and performed quantitative PCR with a commercial kit (Light Cycler-DNA Master SYBR Green I; Roche). […]"}, "[2]": {"conditions": "in vivo; cited from earlier work"}, "human islets β-cells": {"tested_on": "human islets β-cells", "assay": "β-cell apoptosis (TUNEL) and necrosis (propidium iodide) in human islets", "assay_type": "cell-based", "conditions": "33 mM glucose + exogenous FasL", "description": "as §1\nβ-cell apoptosis. The free 3-OH strand breaks resulting from DNA degradation were detected by the terminal deoxynucleotidyl transferase-mediated dUTP nick-end labeling (TUNEL) technique (38). After washing with PBS, cultured islets were fixed in 4% paraformaldehyde (30 min, room temperature) followed by permeabilisation with 0.5% triton X-100 (4 min, room temperature). The TUNEL assay was performed according to the manufacturer's instructions (In Situ Cell Death Detection Kit, AP; Boehringer Mannheim, Germany). […] The samples were immediately evaluated by fluorescence microscopy for positively stained […] nuclei."}, "[3]": {"conditions": "high-energy diet 8 days, 0.4 g/kg phlorizin every 12 h"}}, "data": [{"molecule": "O=C(CCc1ccc(O)cc1)c1c(O)cc(O)cc1O[C@@H]1O[C@H](CO)[C@@H](O)[C@H](O)[C@H]1O", "note": "[phlorizin]", "values": [{"measurement": "IL-1β expression in β-cells", "setting": "[1]; [3]", "result": "prevented IL-1β expression"}, {"measurement": "blood glucose (in words)", "setting": "[1]; [3]", "result": "Normalization of blood glucose"}, {"measurement": "insulin stores of islets", "setting": "[1]; [3]", "result": "restored insulin stores"}, {"measurement": "blood glucose", "setting": "[1]; high-energy diet for 8 days with injections of phlorizin", "result": 5.6, "unit": "mM"}]}, {"molecule": "Interleukin-1β [IL-1β]", "values": [{"measurement": "acute glucose-stimulated insulin release after chronic exposure", "setting": "human islets", "result": "abolished acute glucose-stimulated insulin release"}, {"measurement": "Kd", "setting": "type II IL-1R", "result": "0.3 to 2", "unit": "nM"}, {"measurement": "iNOS mRNA or protein expression", "setting": "iNOS", "result": "Neither 33 mM glucose nor IL-1β alone induced iNOS mRNA"}]}, {"molecule": "anakinra", "values": [{"measurement": "half-life", "setting": "[2]", "result": "4 to 6", "unit": "h"}]}, {"molecule": "FasL: membrane bound Fas-ligand (protein, UniProt P48023 1-281, looked up, full-length) MQQPFNYPYPQIYWVDSSASSPWAPPGTVLPCPTSVPRRPGQRRPPPPPPPPPLPPPPPPPPLPPLPLPPLKKRGNHSTGLCLLVMFFMVLVALVGLGLGMFQLFHLQKELAELRESTSQMHTASSLEKQIGHPSPPPEKKELRKVAHLTGKSNSRSMPLEWEDTYGIVLLSGVKYKKGGLVINETGLYFVYSKVYFRGQSCNNLPLSHKVYMRNSKYPQDLVMMEGKMMSYCTTGQMWARSSYLGAVFNLTSADHLYVNVSELSLVNFEESQTFFGLYKL", "values": [{"measurement": "increase of TUNEL-positive β-cells compared to control at 5.5 mM glucose", "setting": "human islets β-cells", "result": "3.0+/−0.4 fold"}]}]}
